Experimental data from ChEMBL document CHEMBL1201862, “PubChem BioAssay data set” (2004).
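Step 1: Grow cells in 96-well plates. Step 2: Expose to compound for 48 hours at 5 concentrations. Step 3: Interpolate endpoints linearly; if unreached, use highest concentration. GI50: concentration for 50% inhibition of growth.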 Activity calls are given as the source filed them. Cut-off read from the data, not from the text of the source: active = GI50 up to about 1.1 µM and inactive = higher.

Tests used:
Experiment in all cases: NCI anticancer screen, dose series, 48 h
A498 = test system: A498
ACHN = test system: ACHN
EKVX = test system: EKVX
IGROV-1 = test system: IGROV-1
M14 = test system: M14
MDA-MB-435 = test system: MDA-MB-435
MDA-N = test system: MDA-N
NCI-H226 = test system: NCI-H226
NCI-H23 = test system: NCI-H23
OVCAR-4 = test system: OVCAR-4
SK-MEL-28 = test system: SK-MEL-28
SK-MEL-5 = test system: SK-MEL-5
SNB-19 = test system: SNB-19
SNB-75 = test system: SNB-75
UO-31 = test system: UO-31
HCT-15 = test system: HCT-15
NCI-H460 = test system: NCI-H460
SK-OV-3 = test system: SK-OV-3
TK-10 = test system: TK-10

Row | Compound | GI50 (A498) | GI50 (ACHN) | GI50 (EKVX) | GI50 (IGROV-1) | GI50 (M14) | GI50 (MDA-MB-435) | GI50 (MDA-N) | GI50 (NCI-H226) | GI50 (NCI-H23) | GI50 (OVCAR-4) | GI50 (SK-MEL-28) | GI50 (SK-MEL-5) | GI50 (SNB-19) | GI50 (SNB-75) | GI50 (UO-31) | GI50 (HCT-15) | GI50 (NCI-H460) | GI50 (SK-OV-3) | GI50 (TK-10)
1 | CSc1nc2c(c(=O)[nH]1)N=C(c1ccc([N+](=O)[O-])cc1)CC(c1ccccc1)N2 (stereo not given) | > 100 µM (inactive) | 31.9 µM (inactive) | 36.4 µM (inactive) | 32.7 µM (inactive) | 29.7 µM (inactive) | 28.2 µM (inactive) | 38.2 µM (inactive) | > 100 µM (inactive) | 41.3 µM (inactive) | 28.7 µM (inactive) | 22.7 µM (inactive) | 20.9 µM (inactive) | > 100 µM (inactive) | 22.7 µM (inactive) | 50 µM (inactive) |  |  |  | 
2 | O=C(/N=C1/NCC(CN2CCN(c3ccccc3)CC2)O1)Nc1ccccc1 (stereo not given) | > 100 µM (inactive) | > 100 µM (inactive) | > 100 µM (inactive) | > 100 µM (inactive) | > 100 µM (inactive) | > 100 µM (inactive) | > 100 µM (inactive) | > 100 µM (inactive) | > 100 µM (inactive) | > 100 µM (inactive) | > 100 µM (inactive) | > 100 µM (inactive) | > 100 µM (inactive) |  | > 100 µM (inactive) | > 100 µM | > 100 µM (inactive) | > 100 µM (inactive) | > 100 µM (inactive)
3 | CNc1ncnc2c1cnn2Cc1cn(CCCCO)nn1 | > 100 µM (inactive) | > 100 µM (inactive) | > 100 µM (inactive) | > 100 µM (inactive) | > 100 µM (inactive) | > 100 µM (inactive) | > 100 µM (inactive) | > 100 µM (inactive) | > 100 µM (inactive) | > 100 µM (inactive) | > 100 µM (inactive) | > 100 µM (inactive) | > 100 µM (inactive) |  | > 100 µM (inactive) | > 100 µM | > 100 µM (inactive) | > 100 µM (inactive) | > 100 µM (inactive)
4 | CCOc1ccc2c(c1)c(=O)c1c(NCCN(CC)CC)ccc3nnn2c31 | > 100 µM (inactive) | 15.6 µM (inactive) | 83.2 µM (inactive) | 9.64 µM (inactive) | 35.2 µM (inactive) | 16.9 µM (inactive) | 17.5 µM (inactive) | 11.9 µM (inactive) | 14.9 µM (inactive) | 11.9 µM (inactive) | > 40.4 µM (inactive) | 16.3 µM (inactive) | > 79.8 µM (inactive) |  | 3.4 µM (inactive) | 16.9 µM | 10.9 µM (inactive) | > 100 µM (inactive) | 16.7 µM (inactive)
5 | Nc1nc(Nc2ccccc2)sc1C(=O)c1cccs1 | 14.6 µM (inactive) | 16.8 µM (inactive) | 13.6 µM (inactive) | 11.7 µM (inactive) | 21.1 µM (inactive) | 15 µM (inactive) | 17.1 µM (inactive) | 16.8 µM (inactive) | 16.2 µM (inactive) | 15.5 µM (inactive) | 25.4 µM (inactive) | 4.08 µM (inactive) | 16.6 µM (inactive) |  | 11.5 µM (inactive) | 10.8 µM | 10.4 µM (inactive) | 29.4 µM (inactive) | 16.4 µM (inactive)
6 | CCCCC/C(=N\c1[nH]cnc1C(N)=O)OCC | > 100 µM (inactive) | > 100 µM (inactive) | 32.3 µM (inactive) | > 100 µM (inactive) | 94.2 µM (inactive) | > 100 µM (inactive) | > 100 µM (inactive) | > 100 µM (inactive) | > 100 µM (inactive) | > 100 µM (inactive) | > 100 µM (inactive) | > 100 µM (inactive) | > 100 µM (inactive) |  | 55.5 µM (inactive) | > 100 µM | > 100 µM (inactive) | > 100 µM (inactive) | > 100 µM (inactive)
